Experimental data as given in US20230295236A1, “COMPOUNDS FOR USE IN INFLAMMATORY CONDITIONS” (priority 2020, published 2023).
Like-named read-outs stand apart in the source and are kept apart here.

Tests used:
SARS-CoV-2 [1] = assay: SARS-CoV-2 dose-response curve analysis by immunofluorescence in Vero cells
[2] = Cell biomass (DAPI) in Vero-E6 cells; format: cell-based, African green monkey; conditions: African green monkey, Vero-E6 cells, VeroE6 cells, read-out: CC50 based on cell biomass
Method: (§1) Relative infection efficiency was assessed by automated fluorescence microscopy in the green channel and overall cell biomass/well was estimated by nuclear staining with DAPI in the blue channel, as a preliminary assessment of the compound effective doses as well as overall compound cytotoxicity.
(§2) Cells were fixed by addition of a 5X formaldehyde solution to achieve a 4% final concentration for 30 mins at room temperature. Cells were washed with PBS and stained with DAPI (4′,6-diamidino-2-phenylindole) following manufacturer’s recommendations. Relative infection efficiency was estimated by image analysis in an automated microscopy device (Tecan Spark Cyto). Uninfected cells and vehicle-treated controls were included in each plate.

Vero-E6 cells = assay: Cell biomass (DAPI) in Vero-E6 cells; format: cell-based, African green monkey; conditions: VeroE6 cells, 48 hours
Method: as §1, §2

[3] = test system: WNV-GFP (lineage 2; molecular clone WN956)
SARS-CoV-2 [4] = assay: SARS-CoV-2 cytopathic effect in Vero E6 cells (CellTiter-Glo); format: cell-based; conditions: Severe acute respiratory syndrome coronavirus 2, Vero C1008, 72 h, 3 days post infection, two experiments with two replicates each, read-out: IC50 viral-induced cytopathic effect (mean and standard deviation)
Method: Vero E6 cells (ATCC CRL-1586) were cultured in Dulbecco’s modified Eagle medium, (DMEM; Lonza) supplemented with 5% fetal calf serum (FCS; EuroClone), 100 U/mL penicillin, 100 µg/mL streptomycin, and 2 mM glutamine (all ThermoFisher Scientific).
Plitidepsin was used at a concentration ranging from 100 µM to 0.0512 nM at ⅕ serial dilutions, and also assayed from 10 µM to 0.5 nM at ⅓ dilutions.
Increasing concentrations of Plitidepsin was added to Vero E6 cells together with 10^1.8 TCID50/mL of SARS-CoV-2, a concentration that achieves a 50% of cytopathic effect. Non-exposed cells were used as negative controls of infection. In order to detect any drug-associated cytotoxic effect, Vero E6 cells were equally cultured in the presence of increasing drug concentrations, but in the absence of virus. Cytopathic or cytotoxic effects of the virus or drugs were measured at 3 days post infection, using the CellTiter-Glo luminescent cell viability assay (Promega). Luminescence was measured in a Fluoroskan Ascent FL luminometer (ThermoFisher Scientific).
Response curves were adjusted to a non-linear fit regression model, calculated with a four-parameter logistic curve with variable slope. […] Statistical differences from 100% were assessed with a one sample t test. […]

[5] = Pharmacokinetics in patients; format: in vivo; conditions: both sexes, plasma, Human (M/F), 0.135 mg/kg (Recommended Dose 5 mg/m2), 3-h intravenous infusion
NF-κB = NF-κB transactivation luciferase assay in THP-1 NF-κB-Luc cells; format: cell-based, human; conditions: 100 nM plitidepsin, 6 hours; with poly I:C, LPS-B5 or Resiquimod (TLR ligands)
Method: Luminescence was measured in a Perkin-Elmer EnVision reader.

alveolar macrophages = assay: LPS animal inflammation model: macrophages in bronchoalveolar lavage by flow cytometry; format: in vivo, mouse; conditions: mice 1 mg/kg single i.v., LPS 20 µg/kg i.p.
Source text: Three hours later, bronchoalveolar lavages were collected.

SARS-CoV-2 [6] = assay: APLICOV-PC clinical study in patients hospitalised for COVID-19: efficacy; format: in vivo, human
WNV-NY99 (lineage 1) [7] = format: cell-based, West Nile virus; conditions: for Intracellular WNV RNA load (RT-qPCR): Vero-E6 cells
[8] = target: eEF1A purified from rabbit muscle (Oryctolagus cuniculus, UniProt Q71V39); assay: Binding of 14C-plitidepsin to purified eEF1A
WNV-NY99 (lineage 1) [9] = conditions: Huh-7 cells
SARS-CoV-2 [10] = assay: SARS-CoV-2 replication in human stem cell-derived pneumocyte like cells; format: cell-based; conditions: 10 nm plitidepsin for 1 hour before infection; 48 hour incubation
Method: Several in vitro experiments aimed at determining the effect of plitidepsin on SARS-CoV-2 were carried out and are disclosed herein. […] In another study, human stem cell-derived pneumocyte like cells were prophylactically exposed to 10 nm plitidepsin for 1 hour and then infected with SARS-CoV-2 (4 × 10^4 plaque forming units). After a 48 hour incubation period, both antiviral and cytotoxic plitidepsin effects were determined.

[11] = Stability of plitidepsin drug product and reconstituted solution; format: physicochemical
Method: Plitidepsin will be labelled with the study protocol code, the batch number, the content, the expiry date, the storage conditions, the name of the investigator and the sponsor. The study drug will be labelled in accordance with Annex 13 of the European Good Manufacturing Practices. Plitidepsin should be stored between 2° C. and 8° C. and the vials should be kept in the outer carton to protect them from light. The drug in these conditions is stable for 60 months.
After reconstitution of the 2 mg plitidepsin vial with 4 ml of the solution for reconstitution of macrogolglycerol ricinoleate/ethanol/water for injection, the reconstituted solution should be diluted and used immediately after preparation. If not used immediately, storage times and conditions until use are the responsibility of the user. […] If storage is required before administration, solutions should be stored refrigerated and protected from light and should be used within 24 hours after reconstitution.

Sequence of eEF1A purified from rabbit muscle (Q71V39 whole entry): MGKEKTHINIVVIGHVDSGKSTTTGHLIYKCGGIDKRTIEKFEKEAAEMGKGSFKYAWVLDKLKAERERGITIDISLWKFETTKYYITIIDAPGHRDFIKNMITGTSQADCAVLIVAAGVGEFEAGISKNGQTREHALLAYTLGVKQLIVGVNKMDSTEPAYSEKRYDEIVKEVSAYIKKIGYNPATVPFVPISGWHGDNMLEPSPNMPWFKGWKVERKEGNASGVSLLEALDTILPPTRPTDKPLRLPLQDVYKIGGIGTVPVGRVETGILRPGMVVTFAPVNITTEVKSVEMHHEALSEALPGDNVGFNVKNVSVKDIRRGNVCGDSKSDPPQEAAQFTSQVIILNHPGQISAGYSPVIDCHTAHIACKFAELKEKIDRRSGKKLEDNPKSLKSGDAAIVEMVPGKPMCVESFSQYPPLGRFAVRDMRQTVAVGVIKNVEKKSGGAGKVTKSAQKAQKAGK

CC[C@H](C)[C@H]1NC(=O)[C@@H](NC(=O)[C@@H](CC(C)C)N(C)C(=O)[C@@H]2CCCN2C(=O)C(C)=O)[C@@H](C)OC(=O)[C@H](Cc2ccc(OC)cc2)N(C)C(=O)[C@@H]2CCCN2C(=O)[C@H](CC(C)C)NC(=O)[C@@H](C)C(=O)[C@H](C(C)C)OC(=O)C[C@@H]1O [plitidepsin]
SI (SARS-CoV-2 [1]): 49.95-129.92 | IC50 (SARS-CoV-2 [1]; read-out: IC50 inhibition of virus infection, Vero cells, MOI 0.0125, 24 hpi, three repeats): 0.0033 to 0.0039 µM | CC50 at 48 h [2]: 2.33 µM | Concentration up to which cell number remained unchanged (Vero-E6 cells): up to 36 nM | Concentration with antiviral activity in the absence of measurable interference with cell viability (p<0.05) ([3]; Vero-E6 cells): 7.2 nM | Therapeutic index (CC50/EC50) ([3]; VeroE6 cells): 475 | Concentration reaching background fluorescence levels ([3]; VeroE6 cells, 48 hours): ≥ 36 nM | IC50 (SARS-CoV-2 [4]): 0.06 ± 0.02 µM | AUC(0-inf) [5]: 256 ng·h/mL | Cmax [5]: 29.1 ng/mL | clearance [5]: 11.7 to 15 mL/min/kg | Vd ([5]; read-out: Vdss): 29 to 33 L/kg | half-life ([5]; read-out: t½): 20 to 80 h | NF-κB transactivation (luciferase activity) (NF-κB): clearly inhibited the production of luciferase | Macrophages in bronchoalveolar lavage (alveolar macrophages): decrease the percentage of macrophages presents on bronchoalveolar lavage without cytotoxic effects | Mean time from baseline until undetectable viral load (SARS-CoV-2 [6]): 11 days | Mortality from Day 1 to Day 7 (SARS-CoV-2 [6]): 0 n (%) | Mortality from Day 1 to Day 15 (SARS-CoV-2 [6]): 0 n (%) | Mortality from Day 1 to Day 31 (SARS-CoV-2 [6]): 2 (4.5) n (%) | Patients requiring ICU admission from Day 1 to Day 7 (SARS-CoV-2 [6]): 5 (11.4) n (%) | Patients requiring ICU admission from Day 1 to Day 15 (SARS-CoV-2 [6]): 6 (13.6) n (%) | Patients requiring ICU admission from Day 1 to Day 31 (SARS-CoV-2 [6]): 6 (13.6) n (%) | Patients requiring invasive mechanical ventilation and/or ICU admission from Day 1 to Day 7 (SARS-CoV-2 [6]): 5 (11.4) n (%) | Patients requiring invasive mechanical ventilation and/or ICU admission from Day 1 to Day 15 (SARS-CoV-2 [6]): 6 (13.6) n (%) | Patients requiring invasive mechanical ventilation and/or ICU admission from Day 1 to Day 31 (SARS-CoV-2 [6]): 6 (13.6) n (%) | Patients requiring noninvasive mechanical ventilation from Day 1 to Day 7 (SARS-CoV-2 [6]): 4(9.1) n (%) | Patients requiring noninvasive mechanical ventilation from Day 1 to Day 15 (SARS-CoV-2 [6]): 5 (11.4) n (%) | Patients requiring noninvasive mechanical ventilation from Day 1 to Day 31 (SARS-CoV-2 [6]): 6 (13.6) n (%) | Mean change in viral load from baseline to Day 4 (SARS-CoV-2 [6]; 96 h): -1.90 log10 copies/mL | Mean change in viral load from baseline to Day 7 (SARS-CoV-2 [6]; 168 h): -3.07 log10 copies/mL | Mean reduction in viral load (SARS-CoV-2 [6]; 168 h): -3.1 log10 copies/mL | Patients requiring oxygen therapy at Day 7 (SARS-CoV-2 [6]; 168 h): 31 (70.5) n (%) | Patients discharged from hospital by Day 8 (SARS-CoV-2 [6]; 192 h): 25 (56.8) n (%) | Mean change in viral load from baseline to Day 15 (SARS-CoV-2 [6]; 360 h): -4.48 log10 copies/mL | Mean reduction in viral load (SARS-CoV-2 [6]; 360 h): -4.5 log10 copies/mL | Patients discharged from hospital by Day 15 (SARS-CoV-2 [6]; 360 h): 36 (81.8) n (%) | Patients requiring oxygen therapy at Day 15 (SARS-CoV-2 [6]; 360 h): 9 (20.5) n (%) | Reduction in viral load (SARS-CoV-2 [6]; 360 h): -3.0 log | Mean change in viral load from baseline to Day 31 (SARS-CoV-2 [6]; 744 h): -5.27 log10 copies/mL | Patients discharged from hospital by Day 31 (SARS-CoV-2 [6]; 744 h): 40 (90.9) n (%) | Patients requiring oxygen therapy at Day 31 (SARS-CoV-2 [6]; 744 h): 3 (6.8) n (%) | Reduction of extracellular infectivity titers (WNV-NY99 (lineage 1) [7]; 45 nM, VeroE6 cells, 48 hours): > 3 orders of magnitude | Intracellular WNV RNA load (RT-qPCR) (WNV-NY99 (lineage 1) [7]; 5 and 1.5 nM): not distinguishable from those in the control | Intracellular WNV RNA load (RT-qPCR) (WNV-NY99 (lineage 1) [7]; 15 and 45 nM): significantly decreased in a dose-dependent manner | Binding affinity to eEF1A [8]: high affinity | Rate of dissociation from eEF1A [8]: low rate of dissociation | Intracellular WNV RNA load (RT-qPCR) (WNV-NY99 (lineage 1) [9]; 15 nM): marked reduction in viral load | Total cellular RNA recovery (WNV-NY99 (lineage 1) [9]; 45 nM): no RNA could be recovered | Reduction of extracellular infectivity titers (WNV-NY99 (lineage 1) [9]; 45 nM, 48 hours): > 3 orders of magnitude | SARS-CoV-2 replication (SARS-CoV-2 [10]): completely eliminated replication of SARS-CoV-2 | Physical, chemical and microbiological stability of reconstituted concentrated solution ([11]; original vial under indoor light at room temperature): 6 hours | Physical, chemical and microbiological stability of reconstituted concentrated solution ([11]; refrigerated conditions (5° C.±3° C.)): 24 hours | Stability of the drug (vials) ([11]; stored between 2° C. and 8° C., protected from light): 60 months
